From patent US12492173B2, “Herbicidal substituted N-tetrazolyl aryl carboxamides” (Bayer Aktiengesellschaft, priority 2019, dated 2025)

How the values were obtained:
Assay type in all cases: in vivo
[1] = system: Pharbitis purpurea; test: Post-emergence herbicidal action, PHBPU
In short: (§1)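 Values are visual estimates of herbicidal action, from 0% (as untreated) to 100% (dead), made about 3 weeks after plants at one-leaf stage in sandy loam were sprayed with the formulated compound.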

[2] = system: Setaria viridis; test: Post-emergence herbicidal action, SETVI; parameters: key: % herbicidal action vs untreated; 100 = plants died, 0 = like control
In short: as §1

[3] = system: Abutilon theophrasti; test: Pre-emergence herbicidal action, ABUTH; details: dosage 320 g/ha, scored visually after 3 weeks vs untreated controls (100% = plants have died)
In short: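 Herbicidal activity is expressed in percent, scored by eye after a 3-week greenhouse period, with 0% matching untreated plants and 100% meaning death. Compounds, as wettable powders or emulsion concentrates, are applied pre-emergence to the covering soil.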

[4] = system: Alopecurus myosuroides; test: Post-emergence herbicidal action, ALOMY; parameters: key: % herbicidal action vs untreated; 100 = plants died, 0 = like control
In short: as §1

[5] = system: Avena fatua; test: Post-emergence herbicidal action, AVEFA; parameters: key: % herbicidal action vs untreated; 100 = plants died, 0 = like control
In short: as §1

[6] = system: Echinochloa crus-galli; test: Post-emergence herbicidal action, ECHCG; parameters: key: % herbicidal action vs untreated; 100 = plants died, 0 = like control
In short: as §1

[7] = comparative experiment, post-emergence, 5 g of a.i./ha

Cn1nnnc1NC(=O)c1ccc(C(F)(F)F)c(C[S+](C)[O-])c1Cl (racemic) [Example 1-297]
Herbicidal action against PHBPU [1, 7]: 80 | herbicidal action PHBPU ([1]; post-emergence, dosage 80 g/ha): 100% | herbicidal action SETVI ([2]; post-emergence, dosage 80 g/ha): 80% | herbicidal activity ABUTH [3]: 100% | herbicidal action ALOMY ([4]; post-emergence, dosage 80 g/ha): 100% | herbicidal action AVEFA ([5]; post-emergence, dosage 80 g/ha): 100% | herbicidal action ECHCG ([6]; post-emergence, dosage 80 g/ha): 100%

Cc1c(C(=O)Nc2nnnn2C)ccc(C(F)(F)F)c1C[S+](C)[O-] (centres unmarked) [Example 1-84]
herbicidal action PHBPU ([1]; post-emergence, dosage 80 g/ha): 100% | herbicidal action SETVI ([2]; post-emergence, dosage 80 g/ha): 100% | herbicidal activity ABUTH [3]: 100% | herbicidal action ALOMY ([4]; post-emergence, dosage 80 g/ha): 80% | herbicidal action AVEFA ([5]; post-emergence, dosage 80 g/ha): 90% | herbicidal action ECHCG ([6]; post-emergence, dosage 80 g/ha): 90%

Cc1c(C(=O)Nc2nnnn2C)ccc(C(F)(F)F)c1CS(C)(=O)=O [Example 1-85]
herbicidal action PHBPU ([1]; Dosage 80 g/ha): 100 | herbicidal action SETVI ([2]; Dosage 80 g/ha): 100 | herbicidal activity ABUTH [3]: 100% | herbicidal action AVEFA ([5]; Dosage 80 g/ha): 80 | herbicidal action ECHCG ([6]; Dosage 80 g/ha): 90

CCSCc1c(C(F)(F)F)ccc(C(=O)Nc2nnnn2C)c1C [Example 1-86]
herbicidal action PHBPU ([1]; post-emergence, dosage 80 g/ha): 90% | herbicidal action SETVI ([2]; post-emergence, dosage 80 g/ha): 80% | herbicidal activity ABUTH [3]: 100% | herbicidal action ALOMY ([4]; post-emergence, dosage 80 g/ha): 80% | herbicidal action AVEFA ([5]; post-emergence, dosage 80 g/ha): 100% | herbicidal action ECHCG ([6]; post-emergence, dosage 80 g/ha): 80%

CSCc1c(C(F)F)ccc(C(=O)Nc2nnnn2C)c1C [Example 1-107, 4-(difluoromethyl)-2-methyl-3-[(methylsulfanyl)methyl]-N-(1-methyl-1H-tetrazol-5-yl)benzamide]
herbicidal action PHBPU ([1]; Dosage 80 g/ha): 80 | herbicidal action SETVI ([2]; Dosage 80 g/ha): 90 | herbicidal activity ABUTH [3]: 100% | herbicidal action AVEFA ([5]; Dosage 80 g/ha): 80 | herbicidal action ECHCG ([6]; Dosage 80 g/ha): 90 | Herbicidal action against ECHCG [6, 7]: 80

Cc1c(C(=O)Nc2nnnn2C)ccc(C(F)F)c1CS(C)(=O)=O [Example 1-109]
herbicidal action PHBPU ([1]; Dosage 80 g/ha): 100 | herbicidal action SETVI ([2]; Dosage 80 g/ha): 90 | herbicidal activity ABUTH [3]: 100% | herbicidal action ECHCG ([6]; Dosage 80 g/ha): 100

COc1c(C(=O)Nc2nnnn2C)ccc(C(F)(F)F)c1CSC [Example 1-134]
herbicidal action PHBPU ([1]; Dosage 80 g/ha): 100 | Herbicidal action against PHBPU ([1]; post-emergence, dosage 80 g/ha): 90 | herbicidal action SETVI ([2]; Dosage 80 g/ha): 100 | Herbicidal action against SETVI ([2]; post-emergence, dosage 80 g/ha): 100 | herbicidal activity ABUTH [3]: 100% | herbicidal action AVEFA ([5]; Dosage 80 g/ha): 90 | herbicidal action ECHCG ([6]; Dosage 80 g/ha): 100 | Herbicidal action against ECHCG ([6]; post-emergence, dosage 80 g/ha): 90

CSCc1c(C(F)(F)F)ccc(C(=O)Nc2nnnn2C)c1SC [Example 1-161]
herbicidal action PHBPU ([1]; Dosage 80 g/ha): 90 | herbicidal action SETVI ([2]; Dosage 80 g/ha): 100 | herbicidal activity ABUTH [3]: 100% | herbicidal action ALOMY ([4]; Dosage 80 g/ha): 90 | herbicidal action AVEFA ([5]; Dosage 80 g/ha): 100 | herbicidal action ECHCG ([6]; Dosage 80 g/ha): 90

CCSCc1c(C(F)F)ccc(C(=O)Nc2nnnn2C)c1SCC [Example 1-191]
herbicidal action PHBPU ([1]; Dosage 80 g/ha): 80 | herbicidal action SETVI ([2]; Dosage 80 g/ha): 100 | herbicidal activity ABUTH [3]: 100% | herbicidal action ALOMY ([4]; Dosage 80 g/ha): 80 | herbicidal action AVEFA ([5]; Dosage 80 g/ha): 80 | herbicidal action ECHCG ([6]; Dosage 80 g/ha): 100

CSCc1c(C(F)(F)F)ccc(C(=O)Nc2nnnn2C)c1F [Example 1-242]
herbicidal action PHBPU ([1]; Dosage 80 g/ha): 100 | herbicidal action SETVI ([2]; Dosage 80 g/ha): 90 | herbicidal activity ABUTH [3]: 100% | herbicidal action AVEFA ([5]; Dosage 80 g/ha): 80 | herbicidal action ECHCG ([6]; Dosage 80 g/ha): 100

Cn1nnnc1NC(=O)c1ccc(C(F)(F)F)c(C[S+](C)[O-])c1F (centres unmarked) [Example 1-243]
herbicidal action PHBPU ([1]; Dosage 80 g/ha): 100 | herbicidal action SETVI ([2]; Dosage 80 g/ha): 100 | herbicidal activity ABUTH [3]: 100% | herbicidal action AVEFA ([5]; Dosage 80 g/ha): 80 | herbicidal action ECHCG ([6]; Dosage 80 g/ha): 100

Cn1nnnc1NC(=O)c1ccc(C(F)(F)F)c(CS(C)(=O)=O)c1F [Example 1-244]
herbicidal action PHBPU ([1]; Dosage 80 g/ha): 100 | herbicidal action SETVI ([2]; Dosage 80 g/ha): 100 | herbicidal activity ABUTH [3]: 100% | herbicidal action ECHCG ([6]; Dosage 80 g/ha): 90

Cc1ccc(C(=O)Nc2nnnn2C)c(Cl)c1CS(C)(=O)=O [Example 1-289]
herbicidal action PHBPU ([1]; Dosage 80 g/ha): 90 | herbicidal action SETVI ([2]; Dosage 80 g/ha): 90 | herbicidal activity ABUTH [3]: 90% | herbicidal action ALOMY ([4]; Dosage 80 g/ha): 80 | herbicidal action ECHCG ([6]; Dosage 80 g/ha): 100

Cn1nnnc1NC(=O)c1ccc(C(F)(F)F)c(CS(C)(=O)=O)c1Br [Example 1-382, 2-bromo-3-[(methylsulfonyl)methyl]-N-(1-methyl-1H-tetrazol-5-yl)-4-(trifluoromethyl)benzamide]
herbicidal action PHBPU ([1]; Dosage 80 g/ha): 100 | herbicidal action SETVI ([2]; Dosage 80 g/ha): 90 | herbicidal activity ABUTH [3]: 100% | herbicidal action AVEFA ([5]; Dosage 80 g/ha): 100 | herbicidal action ECHCG ([6]; Dosage 80 g/ha): 90

Cn1nnnc1NC(=O)c1ccc(Cl)c(CS(C)(=O)=O)c1Cl [Example 1-561]
herbicidal action PHBPU ([1]; Dosage 80 g/ha): 100 | herbicidal action SETVI ([2]; Dosage 80 g/ha): 100 | herbicidal activity ABUTH [3]: 100% | herbicidal action AVEFA ([5]; Dosage 80 g/ha): 90 | herbicidal action ECHCG ([6]; Dosage 80 g/ha): 100

CCn1nnnc1NC(=O)c1ccc(S(C)(=O)=O)c(CS(C)(=O)=O)c1C [Example 2-39]
herbicidal action PHBPU ([1]; Dosage 80 g/ha): 90 | herbicidal action SETVI ([2]; Dosage 80 g/ha): 100 | herbicidal action ECHCG ([6]; Dosage 80 g/ha): 90

CCn1nnnc1NC(=O)c1ccc(C(F)(F)F)c(C[S+](C)[O-])c1OC (centres unmarked) [Example 2-135]
herbicidal action PHBPU ([1]; Dosage 80 g/ha): 100 | herbicidal action SETVI ([2]; Dosage 80 g/ha): 100 | herbicidal activity ABUTH [3]: 100% | herbicidal action AVEFA ([5]; Dosage 80 g/ha): 100 | herbicidal action ECHCG ([6]; Dosage 80 g/ha): 100

CCn1nnnc1NC(=O)c1ccc(C(F)(F)F)c(CS(C)(=O)=O)c1OC [Example 2-136]
herbicidal action PHBPU ([1]; Dosage 80 g/ha): 90 | herbicidal action SETVI ([2]; Dosage 80 g/ha): 100 | herbicidal activity ABUTH [3]: 100% | herbicidal action AVEFA ([5]; Dosage 80 g/ha): 100 | herbicidal action ECHCG ([6]; Dosage 80 g/ha): 100

CCn1nnnc1NC(=O)c1ccc(C)c(CSC)c1Cl [Example 2-287]
herbicidal action PHBPU ([1]; Dosage 80 g/ha): 90 | herbicidal action SETVI ([2]; Dosage 80 g/ha): 90 | herbicidal action ALOMY ([4]; Dosage 80 g/ha): 100 | herbicidal action ECHCG ([6]; Dosage 80 g/ha): 100

CCn1nnnc1NC(=O)c1ccc(C(F)(F)F)c(CS(C)(=O)=O)c1Br [Example 2-382]
herbicidal action PHBPU ([1]; Dosage 80 g/ha): 100 | herbicidal action SETVI ([2]; Dosage 80 g/ha): 90 | herbicidal activity ABUTH [3]: 100% | herbicidal action ALOMY ([4]; Dosage 80 g/ha): 80 | herbicidal action ECHCG ([6]; Dosage 80 g/ha): 90

CCCn1nnnc1NC(=O)c1ccc(C(F)(F)F)c(CS(=O)(=O)CC)c1C [Example 3-88]
herbicidal action PHBPU ([1]; Dosage 80 g/ha): 90 | herbicidal action SETVI ([2]; Dosage 80 g/ha): 90 | herbicidal activity ABUTH [3]: 100% | herbicidal action AVEFA ([5]; Dosage 80 g/ha): 80 | herbicidal action ECHCG ([6]; Dosage 80 g/ha): 90

CCCn1nnnc1NC(=O)c1ccc(C(F)F)c(CSC)c1C [Example 3-107]
herbicidal action PHBPU ([1]; Dosage 80 g/ha): 80 | herbicidal action SETVI ([2]; Dosage 80 g/ha): 90 | herbicidal activity ABUTH [3]: 100% | herbicidal action AVEFA ([5]; Dosage 80 g/ha): 80 | herbicidal action ECHCG ([6]; Dosage 80 g/ha): 90

CCCn1nnnc1NC(=O)c1ccc(C(F)(F)F)c(CSC)c1OC [Example 3-134]
herbicidal action PHBPU ([1]; Dosage 80 g/ha): 100 | herbicidal action SETVI ([2]; Dosage 80 g/ha): 100 | herbicidal activity ABUTH [3]: 100% | herbicidal action AVEFA ([5]; Dosage 80 g/ha): 90 | herbicidal action ECHCG ([6]; Dosage 80 g/ha): 100

CCCn1nnnc1NC(=O)c1ccc(C(F)(F)F)c(CS(C)(=O)=O)c1OC [Example 3-136]
herbicidal action PHBPU ([1]; Dosage 80 g/ha): 90 | herbicidal action SETVI ([2]; Dosage 80 g/ha): 100 | herbicidal activity ABUTH [3]: 100% | herbicidal action ALOMY ([4]; Dosage 80 g/ha): 90 | herbicidal action ECHCG ([6]; Dosage 80 g/ha): 100

CCCn1nnnc1NC(=O)c1ccc(C(F)F)c(C[S+]([O-])CC)c1Cl (centres unmarked) [Example 3-324]
herbicidal action PHBPU ([1]; Dosage 80 g/ha): 100 | herbicidal action SETVI ([2]; Dosage 80 g/ha): 100 | herbicidal activity ABUTH [3]: 100% | herbicidal action AVEFA ([5]; Dosage 80 g/ha): 100 | herbicidal action ECHCG ([6]; Dosage 80 g/ha): 100

CCCn1nnnc1NC(=O)c1ccc(C(F)(F)F)c(CS(=O)(=O)CC)c1Br [Example 3-385]
herbicidal action PHBPU ([1]; Dosage 80 g/ha): 90 | herbicidal action SETVI ([2]; Dosage 80 g/ha): 90 | herbicidal activity ABUTH [3]: 100% | herbicidal action ECHCG ([6]; Dosage 80 g/ha): 100
